Test results: patent US20220105058A1, “USE OF 3-O-SULFAMATE-16,16-DIMETHYL-D-HOMOEQUILENIN TO TREAT ONCOLOGICAL DISEASES” (priority 2018, published 2022)
Where “and” joins values, the source holds several entries; their conditions need not be identical. Identical values can stand only once. Like-named read-outs stand apart in the source and are kept apart here.

What was measured:
estrogen receptors = assay: study of binding to the estrogen receptors; settings: concentrations of −0.001 and 0.01, 0.1 and 1.0 μmol/ml
[1] = tested on: subcutaneous xenografts of human TNBC-Kad breast cancer
Method: (§1) A comparative study of the medicaments in vivo was performed in female Balb/c nude mice with subcutaneously (s.c.) transplanted tumor cells. The experiment lasted for 29 days after the medicament administration for the first time (the administration of the medicaments was started on Day 5 after the tumor strain transplantation).
(§2) The medicament and the reference drug were administered intragastrically multiple times at doses of 30 mg/kg and 10 mg/kg daily for 21 days.
(§3) The placebo group was given 1% starch solution intragastrically in equivalent volumes and in the same regime. Tumor nodes were measured 2 times per week. […] Once the treatment was completed, the last tumor measurement was carried out, and animals were weighed and euthanized.
(§4) The animals were weighed on the first day of the experiment, and then 2 times per week throughout the experiment according to the research protocol.
(§5) A tumor node was measured after tumor transplantation 2 times per week throughout the experiment. The tumor node volume was determined by the formula:
(§6) V=π/6*L*W*H, where L, W, H are the linear size dimensions of the tumor.
(§7) Determination of Antitumor Activity
(§8) Tumor growth inhibition index (TGI) was used as a criterion for the study of the medicament efficacy and calculated by the formula as follows:
(§9) TGI (%)=|Vctrl−Vexp|/Vctrl*100
(§10) where Vctrl and Vexp are the average tumor volume (mm^3) in the control and in the experimental groups, respectively.
(§11) After the course of the treatment, the animals were euthanized by the cervical dislocation of cervical vertebrae.
(§12) The statistical data processing was conducted using SPSS 21 package (license No. 20130626-3). Descriptive statistics in the study includes the following: arithmetic average, standard deviation (SD), standard mean error (SE), median, quartiles, interquartile range. To compare quantitative characteristics in the groups, the Mann-Whitney-Wilcoxon test was used without corrections for multiple comparisons. The results were considered statistically significant at p<0.05.

[2] = tested on: subcutaneous xenografts of human SKBR-3 breast cancer
Method: as §1, §2, §3, §4, §5, §6, §7, §8, §9, §10, §11, §12

lung cancer A549 = assay: activity against A549; assay type: cell-based; settings: Homo sapiens
[3] = tested on: gastric adenocarcinoma SNU638; assay: activity against SNU638; assay type: cell-based; settings: Homo sapiens, SNU-638
[4] = tested on: Normal human dermal fibroblasts (HDF); assay: growth of normal human skin fibroblasts (negative control); assay type: cell-based; settings: concentration of 20 μg/ml
Method: The study analysis was carried out on an passaged MCF-7 human cells culture culture (breast adenocarcinoma). Normal human dermal fibroblasts (HDF) of early passages were used as a negative control. The cells were cultivated in Carrel vials in DMEM/F12 medium (Biolot) with 1.0% of antibiotic-free fetal bovine embryonic serum (Biolot) added in the 5% CO2 atmosphere, at 37° C.
The cells were seeded on Carrel vials at 50×10^4 cells per flask. To study the proliferative activity of the cells under conditions of sulfatase inhibition, 24 hours after seeding the culture medium was […], and then these tumor cell lines were incubated for various periods of time (24 to 72 hrs). The inhibitor was dissolved in DMSO. […] To exclude the cytotoxic effect of DMSO, a control sample comprising DMSO without sulfatase inhibitor was prepared. To exclude nonspecific detrimental effects of the compounds, normal human skin fibroblasts were used. Then the cells were detached with the versene-trypsin solution (Biolot), plated onto Carrel vials containing a fresh complete culture medium. The cells were counted when untreated control cells reached the maximum cell density per unit of surface area of a culture flask (monolayer), and their number was set as 100%. The proliferative activity of all of the studied cell cultures exposed to sulfatase inhibitors was determined in triplicate.

[5] = tested on: chronic myelogenous leukemia cells (K562); assay: activity against K562; assay type: cell-based
[6] = tested on: hepatocellular carcinoma SK-Hep-1 cells; assay: activity against SK-Hep-1 cells; assay type: cell-based; settings: Homo sapiens, SK-HEP1
endometrium = assay: effects on the endometrium (summary statement)
[7] = pilot experiment, medicament 10 mg/kg, Day 10

CC1(C)CC(=O)[C@@]2(C)CCc3c(ccc4cc(OS(N)(=O)=O)ccc34)[C@@H]2C1 [medicament, 3-O-sulfamate-16,16-dimethyl-D-homoequilenin]
hormone activity (estrogen receptors): lacks hormone activity
number of dead mice before the end of the observation period ([1]; medicament 10 mg/kg): 10 out of 10
average tumor volume (M ± m) ([1]; medicament 10 mg/kg, Day 3): 5.65 ± 1.64 mm^3
TNBC_Kad growth inhibition, TGI ([1]; medicament 10 mg/kg, Day 7): 66.1%
average tumor volume (M ± m) ([1]; medicament 10 mg/kg, Day 7): 27.0±5.1 mm^3 and 26.98 ± 5.12 mm^3
TNBC_Kad growth inhibition, TGI ([1]; medicament 10 mg/kg, Day 10): 78.7%
average tumor volume (M ± m) ([1]; medicament 10 mg/kg, Day 10): 21.6±4.9 mm^3 and 21.59 ± 4.88 mm^3
TNBC_Kad growth inhibition, TGI ([1]; medicament 10 mg/kg, Day 14): 83.1%
average tumor volume (M ± m) ([1]; medicament 10 mg/kg, Day 14): 27.6±2.6 mm^3 and 27.59 ± 2.57 mm^3
TNBC_Kad growth inhibition, TGI ([1]; medicament 10 mg/kg, Day 17): 76.1%
average tumor volume (M ± m) ([1]; medicament 10 mg/kg, Day 17): 46.3±5.3 mm^3 and 46.25 ± 5.31 mm^3
average tumor volume (M ± m) ([1]; medicament i.g. 10 mg/kg, Day 0 of treatment): 1.6±0.4 mm^3 and 1.57 ± 0.35 mm^3
efficacy compared with tamoxifen and letrozole ([1]; xenograft human tumor of triple negative breast cancer): more effective than tamoxifen and aromatase inhibitor letrozole
number of dead mice before the end of the observation period ([2]; medicament 10 mg/kg): 5 out of 7
average tumor volume (M ± m) ([2]; medicament 10 mg/kg i.g. daily, Day 0 of treatment): 1.0±0.4 mm^3
average tumor volume (M ± m) ([2]; medicament 10 mg/kg i.g. daily, Day 0 of treatment, listed as Steroid): 1.0 ± 0.4 mm^3
average tumor volume (M ± m) ([2]; medicament 10 mg/kg, Day 3): 1.2 ± 0.4 mm^3
SKBR-3 growth inhibition, TGI ([2]; medicament 10 mg/kg, Day 7): 74.3%
average tumor volume (M ± m) ([2]; medicament 10 mg/kg, Day 7): 5.1±2.3 mm^3
average tumor volume (M ± m) ([2]; medicament 10 mg/kg, Day 7, listed as Steroid): 5.1 ± 2.3 mm^3
SKBR-3 growth inhibition, TGI ([2]; medicament 10 mg/kg, Day 10): 68.0%
average tumor volume (M ± m) ([2]; medicament 10 mg/kg, Day 10): 24.8±12.2 mm^3
average tumor volume (M ± m) ([2]; medicament 10 mg/kg, Day 10, listed as Steroid): 24.8 ± 12.2 mm^3
SKBR-3 growth inhibition, TGI ([2]; medicament 10 mg/kg, Day 14): 94.3%
average tumor volume (M ± m) ([2]; medicament 10 mg/kg, Day 14): 6.9±2.2 mm^3
average tumor volume (M ± m) ([2]; medicament 10 mg/kg, Day 14, listed as Steroid): 6.9 ± 2.2 mm^3
SKBR-3 growth inhibition, TGI ([2]; medicament 10 mg/kg, Day 17): 90.6%
average tumor volume (M ± m) ([2]; medicament 10 mg/kg, Day 17): 17.6±0.7 mm^3
average tumor volume (M ± m) ([2]; medicament 10 mg/kg, Day 17, listed as Steroid): 17.6 ± 0.7 mm^3
SKBR-3 growth inhibition, TGI ([2]; medicament 10 mg/kg, Day 21): 90.2%
average tumor volume (M ± m) ([2]; medicament 10 mg/kg, Day 21): 26.1±12.1 mm^3
average tumor volume (M ± m) ([2]; medicament 10 mg/kg, Day 21, listed as Steroid): 26.2 ± 12.1 mm^3
SKBR-3 growth inhibition, TGI ([2]; medicament 10 mg/kg, Day 24): 86.3%
average tumor volume (M ± m) ([2]; medicament 10 mg/kg, Day 24): 32.0 ± 6.9 mm^3
average tumor volume (Vaverage) [2, 7]: 2.2±2.0 mm^3
maximum TGI [2, 7]: 91.2%
IC50 (lung cancer A549): 29.6 µM
IC50 [3]: 22.8 µM
growth of human skin fibroblasts [4]: does not influence the growth
activity against K562 cells [5]: active
IC50 [6]: 53.4 µM
negative effects on the endometrium (endometrium): absence of negative effects
